The target of assay [1] is T1, Cbl-b (Homo sapiens, UniProt Q13191).
T1 construct: Cbl-b-HiBit KI Jurkat Cells were purchased from Promega; host or cells: Cbl-b-HiBiT knock-in Jurkat cells
In words: Cbl-b Degradation Method A (FACS, anti-Cbl-b antibody staining). It is filed as cell-based. The conditions noted are these: Cbl-b-HiBit KI Jurkat Cells, incubated at least 20 hours; for DC50: half maximal degradation, read-out: Cbl-b Degredation Method A IC50; for Dmax: Jurkat, maximum degradation observed, read-out: Cbl-b Degredation Method A Dmax (%). In outline:
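Readout is flow cytometry of fixed, permeabilized cells immunostained for Cbl-b (primary 1:200, AF488 secondary). Cells were Cbl-b-HiBit knock-in Jurkat, exposed to compound ≥20 h at 37 °C; half-maximal degradation concentration (DC50) and maximal degradation (Dmax) calculated relative to control.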
In general terms: The HiBiT peptide binds its large partner to form an active luciferase.

Assay [2] addresses T1, Cbl-b. Briefly: Cbl-b Degradation Method B (Nano-Glo HiBiT lytic detection). It is filed as cell-based. The conditions noted are these: Cbl-b-HiBit KI Jurkat Cells, incubated at least 6-24 hours; for DC50: half maximal degradation, read-out: Cbl-b Degredation Method B IC50; for Dmax: maximum degradation observed, read-out: Cbl-b Degredation Method B Dmax (%). The essentials: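 An 11-point, 3-fold compound dilution was applied for 6-24 hours to Jurkat cells carrying HiBiT-tagged endogenous Cbl-b. Lytic HiBiT luminescence quantified residual protein. Outputs are DC50 and Dmax relative to DMSO control.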

These results are taken from patent publication US20260184710A1, “CASITAS B-LINEAGE LYMPHOMA PROTOONCOGENE B (CBL-B) DEGRADING COMPOUNDS AND ASSOCIATED METHODS OF USE” (Arvinas Operations, Inc., priority 2022, published 2026).

The Dmax is the largest share of the target that was removed.

T1 sequence (Q13191 whole entry): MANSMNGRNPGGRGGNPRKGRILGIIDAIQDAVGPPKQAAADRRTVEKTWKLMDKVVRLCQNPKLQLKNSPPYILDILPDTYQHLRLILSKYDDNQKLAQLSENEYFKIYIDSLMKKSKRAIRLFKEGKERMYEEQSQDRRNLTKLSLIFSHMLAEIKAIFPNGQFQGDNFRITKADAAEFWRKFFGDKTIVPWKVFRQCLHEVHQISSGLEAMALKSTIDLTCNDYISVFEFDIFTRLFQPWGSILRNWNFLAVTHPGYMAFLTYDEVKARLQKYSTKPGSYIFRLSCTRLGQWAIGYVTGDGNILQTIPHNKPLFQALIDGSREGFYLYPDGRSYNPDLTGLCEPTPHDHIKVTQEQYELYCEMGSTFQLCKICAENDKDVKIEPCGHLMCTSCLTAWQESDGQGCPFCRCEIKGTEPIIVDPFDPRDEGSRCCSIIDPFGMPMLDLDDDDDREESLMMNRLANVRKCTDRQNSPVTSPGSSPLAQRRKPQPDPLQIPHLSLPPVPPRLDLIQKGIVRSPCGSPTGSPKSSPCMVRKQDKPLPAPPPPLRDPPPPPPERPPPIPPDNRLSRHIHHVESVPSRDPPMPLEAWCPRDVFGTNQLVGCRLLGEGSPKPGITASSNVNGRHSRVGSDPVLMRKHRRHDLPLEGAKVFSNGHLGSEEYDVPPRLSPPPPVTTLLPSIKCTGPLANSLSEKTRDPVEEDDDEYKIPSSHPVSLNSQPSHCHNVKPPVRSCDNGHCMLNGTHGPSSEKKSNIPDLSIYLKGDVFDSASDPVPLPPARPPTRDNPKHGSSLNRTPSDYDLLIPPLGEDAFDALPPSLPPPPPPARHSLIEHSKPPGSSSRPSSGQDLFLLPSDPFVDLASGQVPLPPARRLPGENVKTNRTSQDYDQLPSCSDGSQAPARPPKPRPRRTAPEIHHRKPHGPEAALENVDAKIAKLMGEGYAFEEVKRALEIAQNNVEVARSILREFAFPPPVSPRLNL

Take `Cn1cnnc1CC1(c2cccc(N3Cc4c(cc(CN5CCC(CC6CN(c7cccc8c7C(=O)N(C7CCC(=O)NC7=O)C8=O)C6)CC5)cc4C(F)(F)F)C3=O)c2)COC1` (centres unmarked) [Example 99, 2-(2,6-dioxopiperidin-3-yl)-4-{3-[(1-{[2-(3-{3-[(4-methyl-4H-1,2,4-triazol-3-yl)methyl]oxetan-3-yl}phenyl)-3-oxo-7-(trifluoromethyl)-2,3-dihydro-1H-isoindol-5-yl]methyl}piperidin-4-yl)methyl]azetidin-1-yl}-2,3-dihydro-1H-isoindole-1,3-dione]: the DC50 in assay [1] and in assay [2] was more than 500 nM throughout.

Turning to `Cn1cnnc1CC1(c2cccc(N3Cc4c(cc(CN5CCC(N6CCC7(CCN(c8ccc9c(c8)C(=O)N(C8CCC(=O)NC8=O)C9=O)CC7)CC6)CC5)cc4C(F)(F)F)C3=O)c2)COC1` (centres unmarked) [Example 100, 2-(2,6-dioxopiperidin-3-yl)-5-[9-(1-{[2-(3-{3-[(4-methyl-4H-1,2,4-triazol-3-yl)methyl]oxetan-3-yl}phenyl)-3-oxo-7-(trifluoromethyl)-2,3-dihydro-1H-isoindol-5-yl]methyl}piperidin-4-yl)-3,9-diazaspiro[5.5]undecan-3-yl]-2,3-dihydro-1H-isoindole-1,3-dione], in assay [1], the DC50 is more than 500 nM and the Dmax was less than 35%. The DC50 in assay [2] is more than 500 nM.

In the case of `Cn1cnnc1CC1(c2cccc(N3Cc4c(cc(CN5CCC[C@H](CN6CCC(CN7CCN(c8ccc9c(c8)C(=O)N(C8CCC(=O)NC8=O)C9=O)CC7)CC6)C5)cc4C(F)(F)F)C3=O)c2)COC1` (stereo partly drawn) [Example 101, 2-(2,6-dioxopiperidin-3-yl)-5-{4-[(1-{[(3R)-1-{[2-(3-{3-[(4-methyl-4H-1,2,4-triazol-3-yl)methyl]oxetan-3-yl}phenyl)-3-oxo-7-(trifluoromethyl)-2,3-dihydro-1H-isoindol-5-yl]methyl}piperidin-3-yl]methyl}piperidin-4-yl)methyl]piperazin-1-yl}-2,3-dihydro-1H-isoindole-1,3-dione], the DC50 in assay [1] and in assay [2] was more than 500 nM in each case.

For the molecule `CC1CC(N2CCC(COCCOc3ccc4c(c3)C(=O)N(C3CCC(=O)NC3=O)C4=O)CC2)CN(Cc2cc3c(c(C(F)(F)F)c2)CN(c2cccc(C4(Cc5nncn5C)COC4)c2)C3=O)C1` (centres unmarked) [Example 102, 2-(2,6-dioxopiperidin-3-yl)-5-{2-[(5′-methyl-1′-{[2-(3-{3-[(4-methyl-4H-1,2,4-triazol-3-yl)methyl]oxetan-3-yl}phenyl)-3-oxo-7-(trifluoromethyl)-2,3-dihydro-1H-isoindol-5-yl]methyl}-[1,3′-bipiperidin]-4-yl)methoxy]ethoxy}-2,3-dihydro-1H-isoindole-1,3-dione], the DC50 in assay [1] and in assay [2] was more than 500 nM throughout.

Consider `Cn1cnnc1CC1(c2cccc(N3Cc4c(cc(CN5CCC(N6CCN(CC7CCN(c8ccc9c(c8)C(=O)N(C8CCC(=O)NC8=O)C9=O)CC7)CC6)CC5)cc4C(F)(F)F)C3=O)c2)COC1` (centres unmarked) [Example 103, 2-(2,6-dioxopiperidin-3-yl)-5-(4-{[4-(1-{[2-(3-{3-[(4-methyl-4H-1,2,4-triazol-3-yl)methyl]oxetan-3-yl}phenyl)-3-oxo-7-(trifluoromethyl)-2,3-dihydro-1H-isoindol-5-yl]methyl}piperidin-4-yl)piperazin-1-yl]methyl}piperidin-1-yl)-2,3-dihydro-1H-isoindole-1,3-dione], for which, in assay [1], the DC50 was more than 500 nM and the Dmax fell in the range of 35 to 70%. Further, the DC50 in assay [2] was more than 500 nM.

As to `Cn1cnnc1CC1(c2cccc(N3Cc4c(cc(CN5CCN(C6CCN(CC7CCN(c8ccc9c(c8)C(=O)N(C8CCC(=O)NC8=O)C9=O)CC7)CC6)CC5)cc4C(F)(F)F)C3=O)c2)COC1` (centres unmarked) [Example 104, 2-(2,6-dioxopiperidin-3-yl)-5-(4-{[4-(4-{[2-(3-{3-[(4-methyl-4H-1,2,4-triazol-3-yl)methyl]oxetan-3-yl}phenyl)-3-oxo-7-(trifluoromethyl)-2,3-dihydro-1H-isoindol-5-yl]methyl}piperazin-1-yl)piperidin-1-yl]methyl}piperidin-1-yl)-2,3-dihydro-1H-isoindole-1,3-dione], the DC50 in assay [1] was 50 to 500 nM; in assay [2], more than 500 nM.

As for `Cn1cnnc1CC1(c2cccc(N3Cc4c(cc(CN5CCN(C6CCC7(CC6)CCN(c6ccc8c(c6)C(=O)N(C6CCC(=O)NC6=O)C8=O)CC7)CC5)cc4C(F)(F)F)C3=O)c2)COC1` (centres unmarked) [Example 105, 2-(2,6-dioxopiperidin-3-yl)-5-[9-(4-{[2-(3-{3-[(4-methyl-4H-1,2,4-triazol-3-yl)methyl]oxetan-3-yl}phenyl)-3-oxo-7-(trifluoromethyl)-2,3-dihydro-1H-isoindol-5-yl]methyl}piperazin-1-yl)-3-azaspiro[5.5]undecan-3-yl]-2,3-dihydro-1H-isoindole-1,3-dione], the DC50 in assay [1] and in assay [2] was more than 500 nM each time.

Consider `Cn1cnnc1CC1(c2cccc(N3Cc4c(cc(CN5CCC(N6CC7(CN(c8ccc9c(c8)C(=O)N(C8CCC(=O)NC8=O)C9=O)C7)C6)CC5)cc4C(F)(F)F)C3=O)c2)COC1` (centres unmarked) [Example 106, 2-(2,6-dioxopiperidin-3-yl)-5-[6-(1-{[2-(3-{3-[(4-methyl-4H-1,2,4-triazol-3-yl)methyl]oxetan-3-yl}phenyl)-3-oxo-7-(trifluoromethyl)-2,3-dihydro-1H-isoindol-5-yl]methyl}piperidin-4-yl)-2,6-diazaspiro[3.3]heptan-2-yl]-2,3-dihydro-1H-isoindole-1,3-dione], for which, in assay [1], the DC50 was 50 to 500 nM and the greatest degradation seen (Dmax) was more than 70%. Also, in assay [2], the DC50 was more than 500 nM.

In the case of `Cn1cnnc1CC1(c2cccc(N3Cc4c(cc(CN5CCN(C6CC7(C6)CN(c6ccc8c(c6)C(=O)N(C6CCC(=O)NC6=O)C8=O)C7)CC5)cc4C(F)(F)F)C3=O)c2)COC1` (centres unmarked) [Example 107, 2-(2,6-dioxopiperidin-3-yl)-5-[6-(4-{[2-(3-{3-[(4-methyl-4H-1,2,4-triazol-3-yl)methyl]oxetan-3-yl}phenyl)-3-oxo-7-(trifluoromethyl)-2,3-dihydro-1H-isoindol-5-yl]methyl}piperazin-1-yl)-2-azaspiro[3.3]heptan-2-yl]-2,3-dihydro-1H-isoindole-1,3-dione], in assay [1], the DC50 was in the range of 5 to 50 nM and the Dmax was less than 35%. The DC50 in assay [2] was more than 500 nM.

As to `Cn1cnnc1CC1(c2cccc(N3Cc4c(cc(CN5CCCC(N6CC7(CCN(c8ccc9c(c8)C(=O)N(C8CCC(=O)NC8=O)C9=O)CC7)C6)C5)cc4C(F)(F)F)C3=O)c2)COC1` (centres unmarked) [Example 108, 2-(2,6-dioxopiperidin-3-yl)-5-[2-(1-{[2-(3-{3-[(4-methyl-4H-1,2,4-triazol-3-yl)methyl]oxetan-3-yl}phenyl)-3-oxo-7-(trifluoromethyl)-2,3-dihydro-1H-isoindol-5-yl]methyl}piperidin-3-yl)-2,7-diazaspiro[3.5]nonan-7-yl]-2,3-dihydro-1H-isoindole-1,3-dione], the DC50 in assay [1] and in assay [2] was 5 to 50 nM throughout. Besides, the Dmax in assay [1] is less than 35%; in assay [2], 35 to 70%.

With `Cn1cnnc1CC1(c2cccc(N3Cc4c(cc(CN5CCC[C@@H](CN6CCC(CC7CCN(c8ccc9c(c8)C(=O)N(C8CCC(=O)NC8=O)C9=O)CC7)CC6)C5)cc4C(F)(F)F)C3=O)c2)COC1` (stereo partly drawn) [Example 110, 2-(2,6-dioxopiperidin-3-yl)-5-{4-[(1-{[(3S)-1-{[2-(3-{3-[(4-methyl-4H-1,2,4-triazol-3-yl)methyl]oxetan-3-yl}phenyl)-3-oxo-7-(trifluoromethyl)-2,3-dihydro-1H-isoindol-5-yl]methyl}piperidin-3-yl]methyl}piperidin-4-yl)methyl]piperidin-1-yl}-2,3-dihydro-1H-isoindole-1,3-dione], in assay [1], the DC50 lay in the range of 5 to 50 nM and the Dmax is less than 35%. The DC50 in assay [2] was more than 500 nM.

For the molecule `Cn1cnnc1CC1(c2cccc(N3Cc4c(cc(CN5CCC[C@H](CN6CCC(CC7CCN(c8ccc9c(c8)C(=O)N(C8CCC(=O)NC8=O)C9=O)CC7)CC6)C5)cc4C(F)(F)F)C3=O)c2)COC1` (stereo partly drawn) [Example 111, 2-(2,6-dioxopiperidin-3-yl)-5-{4-[(1-{[(3R)-1-{[2-(3-{3-[(4-methyl-4H-1,2,4-triazol-3-yl)methyl]oxetan-3-yl}phenyl)-3-oxo-7-(trifluoromethyl)-2,3-dihydro-1H-isoindol-5-yl]methyl}piperidin-3-yl]methyl}piperidin-4-yl)methyl]piperidin-1-yl}-2,3-dihydro-1H-isoindole-1,3-dione], the DC50 in assay [1] was 50 to 500 nM; in assay [2], more than 500 nM.

`Cn1cnnc1CC1(c2cccc(N3Cc4c(cc(CN5CCN(C[C@H]6CC[C@H](OC7CCN(c8ccc9c(n8)CN(C8CCC(=O)NC8=O)C9=O)CC7)CC6)CC5)cc4C(F)(F)F)C3=O)c2)COC1` (some centres unmarked) [Example 112, 3-[5-oxo-2-(4-{[(1r,4r)-4-[(4-{[2-(3-{3-[(4-methyl-4H-1,2,4-triazol-3-yl)methyl]oxetan-3-yl}phenyl)-3-oxo-7-(trifluoromethyl)-2,3-dihydro-1H-isoindol-5-yl]methyl}piperazin-1-yl)methyl]cyclohexyl]oxy}piperidin-1-yl)-5H,6H,7H-pyrrolo[3,4-b]pyridin-6-yl]piperidine-2,6-dione]: in assay [1], the DC50 fell in the range of 5 to 50 nM and the Dmax was 35 to 70%. In assay [2], the DC50 was less than 5 nM and the Dmax was in the range of 35 to 70%.
